Legend:
Assay type in all cases: in vivo, rat
[1] = system: male DOCA salt hypertensive rats (DOCAR); assay: Pharmacological Test-2: blood pressure after oral administration in DOCA salt hypertensive rats; conditions: for Blood Pressure (mmHg) 1 hr. / Blood Pressure (mmHg) 3 hrs. / Blood Pressure (mmHg) 6 hrs. / Blood Pressure (mmHg) 9 hrs. / Blood Pressure (mmHg) 12 hrs.: DOCA salt hypertensive rats, oral, 3 mg/kg; for Blood Pressure (mmHg) 1 hr.: 1 hr. after administration; for Blood Pressure (mmHg) 3 hrs.: 3 hrs. after administration; for Blood Pressure (mmHg) 6 hrs.: 6 hrs. after administration; for Blood Pressure (mmHg) 9 hrs.: 9 hrs. after administration; for Blood Pressure (mmHg) 12 hrs.: 12 hrs. after administration; for lapse of time until approximately maximum blood pressure depression: summary of 'Tables 1 and 2' as printed after Table 3
Protocol: (§1) This test was performed using male spontaneously hypertensive rats (SHR, 15 weeks old or older, 300 to 400 g). Under halothane anesthesia, the left femoral arteries of the rats were cannulated using a polyethylene cannula. The cannula was connected to a device for blood pressure measurement. Then, the rats were placed in the Bollman-type cages. After one hour, it was confirmed that the blood pressure was kept constant. When the rats waked, they were orally administered with the test compound, and variation of blood pressure after the administration was measured as time passed. The test compound was suspended or dissolved in 1% aqueous methylcellulose solution and administered in an amount of 0.2 mL per 100 g of body weight.
(§2) This test was performed by measuring the blood pressure in the same manner as in the above pharmacological test-1 using male DOCA salt hypertensive rats (DOCAR, 15 weeks old or older, 300 to 400 g, not-fasted). The test results are set forth in Table 2.The compound of the invention examined in this test was the same as that employed in the pharmacological test-1.

[2] = system: male Dahl salt sensitive male rats (DahlSR); assay: Pharmacological Test-3: blood pressure after oral administration in Dahl salt sensitive rats; conditions: 3 mg/kg; for Blood Pressure (mmHg) 1 hr.: 1 hr. after administration; for Blood Pressure (mmHg) 3 hrs.: 3 hrs. after administration; for Blood Pressure (mmHg) 6 hrs.: 6 hrs. after administration; for Blood Pressure (mmHg) 9 hrs.: 9 hrs. after administration; for Blood Pressure (mmHg) 12 hrs.: 12 hrs. after administration
Protocol: as §1
This test was performed in the same manner as in the above pharmacological test-1 using male Dahl salt sensitive male rats (DahlSR, 15 weeks old or older, 300 to 400 g, not-fasted). The compound of the invention examined in this test was the same as that employed in the pharmacological test-1.

[3] = system: male spontaneously hypertensive rats (SHR); assay: Pharmacological Test-1: blood pressure after oral administration in spontaneously hypertensive rats; conditions: for Blood Pressure (mmHg) 1 hr. / Blood Pressure (mmHg) 3 hrs. / Blood Pressure (mmHg) 6 hrs. / Blood Pressure (mmHg) 9 hrs. / Blood Pressure (mmHg) 12 hrs.: oral; for Blood Pressure (mmHg) 1 hr.: variation of blood pressure 1 hr. after administration; for Blood Pressure (mmHg) 3 hrs.: variation of blood pressure 3 hrs. after administration; for Blood Pressure (mmHg) 6 hrs.: variation of blood pressure 6 hrs. after administration; for Blood Pressure (mmHg) 9 hrs.: variation of blood pressure 9 hrs. after administration; for Blood Pressure (mmHg) 12 hrs.: variation of blood pressure 12 hrs. after administration; for blood pressure depression, result in words / lapse of time until approximately maximum blood pressure depression: summary of Table 1
Protocol: as §1

[4] = system: normal male rats of Wister strain; assay: Pharmacological Test-4: blood pressure after oral administration in normal rats; conditions: for Blood Pressure (mmHg) 1 hr. / Blood Pressure (mmHg) 3 hrs. / Blood Pressure (mmHg) 6 hrs. / Blood Pressure (mmHg) 9 hrs. / Blood Pressure (mmHg) 12 hrs.: oral; for Blood Pressure (mmHg) 1 hr.: 1 hr. after administration; for Blood Pressure (mmHg) 3 hrs.: 3 hrs. after administration; for Blood Pressure (mmHg) 6 hrs.: 6 hrs. after administration; for Blood Pressure (mmHg) 9 hrs.: 9 hrs. after administration; for Blood Pressure (mmHg) 12 hrs.: 12 hrs. after administration; for effect on normal blood pressure, result in words: summary of Table 4
Protocol: as §1
as §2, with “using normal” for “using”, “male” for “male DOCA salt hypertensive”, “of Wister strain (15” for “(DOCAR, 15”, “4.The” for “2.The”

Row | Structure (SMILES) | Blood Pressure (mmHg) 1 hr. [1] | Blood Pressure (mmHg) 3 hrs. [1] | Blood Pressure (mmHg) 6 hrs. [1] | Blood Pressure (mmHg) 9 hrs. [1] | Blood Pressure (mmHg) 12 hrs. [1] | lapse of time until approximately maximum blood pressure depression [1] | Blood Pressure (mmHg) 1 hr. [2] | Blood Pressure (mmHg) 1 hr. ([3]; 1 mg/kg) | Blood Pressure (mmHg) 3 hrs. ([3]; 1 mg/kg) | Blood Pressure (mmHg) 6 hrs. ([3]; 1 mg/kg) | Blood Pressure (mmHg) 1 hr. ([3]; 3 mg/kg) | Blood Pressure (mmHg) 3 hrs. ([3]; 3 mg/kg) | Blood Pressure (mmHg) 6 hrs. ([3]; 3 mg/kg) | lapse of time until approximately maximum blood pressure depression [3] | Blood Pressure (mmHg) 1 hr. ([4]; 3 mg/kg) | Blood Pressure (mmHg) 3 hrs. ([4]; 3 mg/kg) | Blood Pressure (mmHg) 6 hrs. ([4]; 3 mg/kg) | Blood Pressure (mmHg) 9 hrs. ([4]; 3 mg/kg) | Blood Pressure (mmHg) 12 hrs. ([4]; 3 mg/kg) | effect on normal blood pressure, result in words [4] | other results
1 | COc1cc2nc(N3CCN(C(=O)c4cc(C(C)(C)C)c(O)c(C(C)(C)C)c4)CC3)nc(N)c2cc1OC.Cl [Invention, 4-amino-2-[4-(3,5-di-t-butyl-4-hydroxybenzoyl)-1-piperazinyl]-6,7-dimethoxyquinazoline hydrochloride] | −15 mmHg | −42 mmHg | −62 mmHg | −49 mmHg | −37 mmHg | six hours | −11 mmHg | −4 mmHg | −25 mmHg | −41 mmHg | −29 mmHg | −60 mmHg | −75 mmHg | six hours | −5 mmHg | −9 mmHg | −19 mmHg | −21 mmHg | −24 mmHg | affects the normal blood pressure only slightly | Blood Pressure (mmHg) 3 hrs. [2]: −25 mmHg; Blood Pressure (mmHg) 6 hrs. [2]: −49 mmHg; Blood Pressure (mmHg) 9 hrs. [2]: −50 mmHg; Blood Pressure (mmHg) 12 hrs. [2]: −52 mmHg; Blood Pressure (mmHg) 9 hrs. ([3]; 1 mg/kg): −44 mmHg; Blood Pressure (mmHg) 12 hrs. ([3]; 1 mg/kg): −39 mmHg; Blood Pressure (mmHg) 9 hrs. ([3]; 3 mg/kg): −64 mmHg; Blood Pressure (mmHg) 12 hrs. ([3]; 3 mg/kg): −60 mmHg; blood pressure depression, result in words [3]: slowly decreases the blood pressure; Blood Pressure (mmHg) 1 hr. ([4]; 1 mg/kg): −4 mmHg; Blood Pressure (mmHg) 3 hrs. ([4]; 1 mg/kg): −11 mmHg; Blood Pressure (mmHg) 6 hrs. ([4]; 1 mg/kg): −21 mmHg; Blood Pressure (mmHg) 9 hrs. ([4]; 1 mg/kg): −22 mmHg; Blood Pressure (mmHg) 12 hrs. ([4]; 1 mg/kg): −23 mmHg
2 | COc1cc2nc(N3CCN(C(=O)c4ccco4)CC3)nc(N)c2cc1OC.Cl [Prazo., prazosin hydrochloride] | −81 mmHg | −62 mmHg | −69 mmHg | −50 mmHg | −36 mmHg | one to two hours | −48 mmHg | −35 mmHg | −41 mmHg | −42 mmHg | −57 mmHg | −69 mmHg | −65 mmHg | one hour | −44 mmHg | −40 mmHg | −33 mmHg | −33 mmHg | −43 mmHg | largely decrease normal blood pressure | Blood Pressure (mmHg) 3 hrs. [2]: −41 mmHg; Blood Pressure (mmHg) 6 hrs. [2]: −43 mmHg; Blood Pressure (mmHg) 9 hrs. [2]: −40 mmHg; Blood Pressure (mmHg) 12 hrs. [2]: −36 mmHg; Blood Pressure (mmHg) 9 hrs. ([3]; 1 mg/kg): −41 mmHg; Blood Pressure (mmHg) 12 hrs. ([3]; 1 mg/kg): −38 mmHg; Blood Pressure (mmHg) 9 hrs. ([3]; 3 mg/kg): −61 mmHg; Blood Pressure (mmHg) 12 hrs. ([3]; 3 mg/kg): −60 mmHg; Blood Pressure (mmHg) 1 hr. ([4]; 1 mg/kg): −27 mmHg; Blood Pressure (mmHg) 3 hrs. ([4]; 1 mg/kg): −21 mmHg; Blood Pressure (mmHg) 6 hrs. ([4]; 1 mg/kg): −23 mmHg; Blood Pressure (mmHg) 9 hrs. ([4]; 1 mg/kg): −23 mmHg; Blood Pressure (mmHg) 12 hrs. ([4]; 1 mg/kg): −24 mmHg
3 | COc1cc2nc(N3CCN(C(=O)C4COc5ccccc5O4)CC3)nc(N)c2cc1OC (stereo not drawn) [Doxa., doxazosin mesilate] |  |  |  |  |  |  |  | −19 mmHg | −21 mmHg | −19 mmHg | −35 mmHg | −32 mmHg | −29 mmHg |  | −24 mmHg | −19 mmHg | −20 mmHg | −22 mmHg | −23 mmHg | largely decrease normal blood pressure | Blood Pressure (mmHg) 1 hr. ([3]; 10 mg/kg): −37 mmHg; Blood Pressure (mmHg) 3 hrs. ([3]; 10 mg/kg): −50 mmHg; Blood Pressure (mmHg) 6 hrs. ([3]; 10 mg/kg): −35 mmHg
4 | COc1cc2nc(N3CCN(C(=O)c4ccc(O)cc4)CC3)nc(N)c2cc1OC.Cl [Comp. [D], 4-amino-2-[4-(4-hydroxybenzoyl)-1-piperazinyl]-6,7-dimethoxyquinazoline hydrochloride] |  |  |  |  |  |  |  | 2 mmHg | −3 mmHg | −6 mmHg | −5 mmHg | −6 mmHg | −8 mmHg |  |  |  |  |  |  |  | blood pressure depression, result in words [3]: very little blood pressure depression
5 | COc1cc2nc(N3CCN(C(=O)c4ccccc4)CC3)nc(N)c2cc1OC.Cl [Comp. [C], 4-amino-2-(4-benzoyl-1-piperazinyl)-6,7-dimethoxyquinazoline hydrochloride] |  |  |  |  |  |  |  | −36 mmHg | −31 mmHg | −39 mmHg | −64 mmHg | −64 mmHg | −61 mmHg | one hour |  |  |  |  |  |  | 

Reference: patent US6706705B1, “Quinazoline derivatives” (Nippon Chemiphar Co., Ltd., priority 1994, dated 2004)
